Laboratory results as given in patent publication EP0471296B1, “1-(Pyridinylalkyl)-1H-indoles, indolines and related analogs” (HOECHST-ROUSSEL PHARMACEUTICALS INCORPORATED, priority 1990, dated 1992).

Assays:
[1] = biological target: T1, Brain Acetylcholinesterase (Rattus norvegicus, UniProt P37136); experiment: In Vitro Inhibition of Acetylcholinesterase Activity in Rat Striatum (modified Ellman method); type: biochemical; details: rat striatum homogenate, read-out: % Inhibition @ Dose
T1 construct: corpora striata dissected free, weighed and homogenized in 19 volumes; from tissue; host or cells: rat corpora striata homogenate (male Wistar rats)
From the text: Cholinesterases are found throughout the body, both in the brain and in serum. However, only brain acetylcholinesterase (AChE) distribution is correlated with central cholinergic innervation. […] We have determined in vitro inhibition of acetylcholinesterase activity in rat striatum according to the method described below.
In Vitro Inhibition of Acetylcholinesterase Activity in Rat Striatum
Acetylcholinesterase (AChE), which is sometimes called true or specific cholinesterase, is found in nerve cells, skeletal muscle, smooth muscle, various glands and red blood cells. AChE may be distinguished from other cholinesterases by substrate and inhibitor specificities and by regional distribution.
It is generally accepted that the physiological role of AChE is the rapid hydrolysis and inactivation of acetylcholine. […]
• A. Reagents- • 1. […] If active, IC₅₀ values are determined from the inhibitory activity of subsequent concentrations. • B. Tissue Preparation - Male Wistar rats are decapitated, brains rapidly removed, corpora striata dissected free, weighed and homogenized in 19 volumes (approximately 7 mg protein/ml) of 0.05 M phosphate buffer, pH 7.2, using a Potter-Elvehjem homogenizer. […] Assay Enzyme activity is measured with the Beckman DU-50 spectrophotometer. […] This program also calculates the rate of absorbance change for each cuvette. […]

mice = experiment: Dark Avoidance Assay (reversal of scopolamine-induced memory deficit); type: in vivo; details: s.c.
Method: In this assay mice are tested for their ability to remember an unpleasant stimulus for a period of 24 hours. A mouse is placed in a chamber that contains a dark compartment; a strong incandescent light drives it to the dark compartment, where an electric shock is administered through metal plates on the floor. The animal is removed from the testing apparatus and tested again, 24 hours later, for the ability to remember the electric shock.
If scopolamine, an anticholinergic that is known to cause memory impairment, is administered before an animal's initial exposure to the test chamber, the animal re-enters the dark compartment shortly after being placed in the test chamber 24 hours later. This effect of scopolamine is blocked by an active test compound, resulting in a greater interval before re-entry into the dark compartment.
The results for an active compound are expressed as the percent of a group of animals in which the effect of scopolamine is blocked, as manifested by an increased interval between being placed in the test chamber and re-entering the dark compartment.

T1 sequence (P37136 32-614): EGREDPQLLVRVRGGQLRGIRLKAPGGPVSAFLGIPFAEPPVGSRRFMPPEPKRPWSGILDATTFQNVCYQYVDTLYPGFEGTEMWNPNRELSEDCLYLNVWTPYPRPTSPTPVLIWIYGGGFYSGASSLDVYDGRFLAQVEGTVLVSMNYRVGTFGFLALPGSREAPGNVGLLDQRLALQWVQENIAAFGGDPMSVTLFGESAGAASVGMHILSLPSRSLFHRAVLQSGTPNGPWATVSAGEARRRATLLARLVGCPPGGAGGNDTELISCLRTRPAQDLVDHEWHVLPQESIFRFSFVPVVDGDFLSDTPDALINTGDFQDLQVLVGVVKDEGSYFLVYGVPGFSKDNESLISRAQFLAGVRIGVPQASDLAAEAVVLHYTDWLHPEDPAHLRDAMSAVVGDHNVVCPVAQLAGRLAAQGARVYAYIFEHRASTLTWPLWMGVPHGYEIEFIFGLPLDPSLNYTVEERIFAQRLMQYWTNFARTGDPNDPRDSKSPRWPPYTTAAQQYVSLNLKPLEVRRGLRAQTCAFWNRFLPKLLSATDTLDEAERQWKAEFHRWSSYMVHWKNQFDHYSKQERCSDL

Oc1ccc2c(ccn2Cc2ccncc2)c1 [1-(4-pyridinylmethyl)-1H-indol-5-ol, 1-(4-Pyridinylmethyl)-1H-indol-5-ol]
inhibition at 100 µM ([1]; 100 µM): 24%

c1ccc2c(c1)ccn2Cc1ccncc1 [1-(4-pyridinylmethyl)-1H-indole, 1-(4-Pyridinylmethyl)-1H-indole]
% of Animals with Scopolamine-Induced Memory Deficit Reversal (mice; dose 0.3 mg/kg of body weight): 33% | % of Animals with Scopolamine-Induced Memory Deficit Reversal (mice; dose 1.0 mg/kg of body weight): 20%

CCCC(c1ccncc1)n1ccc2ccccc21 (stereo not shown) [1-[1-(4-pyridinyl)-butyl]-1H-indole, 1-[1-(4-Pyridinyl)butyl]-1H-indole]
% of Animals with Scopolamine-Induced Memory Deficit Reversal (mice; dose 0.3 mg/kg of body weight): 20%

CN1CCC2(C)c3cc(O)ccc3N(C)C12 (stereo not shown) [Eseroline]
inhibition at 6.4 µM ([1]; 6.4 µM): 50%

CC[C@@H]1C(=O)OC[C@@H]1Cc1cncn1C [Pilocarpine]
% of Animals with Scopolamine-Induced Memory Deficit Reversal (mice; dose 5.0 mg/kg of body weight): 13%

Nc1c2c(nc3ccccc13)CCCC2 [Tacrine]
% of Animals with Scopolamine-Induced Memory Deficit Reversal (mice; dose 0.63 mg/kg of body weight): 13%
